Data published in patent publication EP4778920A1, “INDAZOLONE COMPOUND, PREPARATION METHOD THEREFOR, PHARMACEUTICAL COMPOSITION, AND USE” (Shanghai Institute of Materia Medica, Chinese Academy of …, priority 2023, dated 2025).
pIC50: −log10 of the molar value. Like-named read-outs stand apart in the source and are kept apart here.

Tests used:
MM.1S cells = experiment: MM.1S cell proliferation inhibition (MTS assay); type: cell-based; settings: Homo sapiens, MM1.S, 168 h, 7 days incubation, read-out: MM1.S (IC50, Inhibitory Activity of Compounds on MM.1S Cell Proliferation)
Description: The cell concentration was diluted according to a 7-day incubation period, and 180 µL of cell suspension was added to each well of a 96-well plate, with 20,000 cells per well. […] The test compounds were prepared from a 10 mM stock solution and serially diluted in a 5-fold gradient, and 20 µL of the diluted solution was added to each compound-treated well (final DMSO concentration also 0.2%). The cells were incubated in a 37 °C, 5% CO2 incubator for 7 days. After incubation, the reaction solution was prepared according to the MTS assay kit instructions (Promega, G5430), and 20 µL was added to each well. The plate was incubated at 37 °C with 5% CO2 for 3-4 hours. The absorbance at 490 nm was measured using a microplate reader, and the absorbance at 690 nm was used as the background value. […] The IC50 values for cell proliferation inhibition were determined using GraphPad Prism 5.0. Each experiment was repeated three times, and three parallel replicates were performed in each experiment to calculate the mean value and standard deviation.
Inhibitory Activity of Compounds on MM.1S Cell Proliferation

Mino cells = experiment: Mino cell proliferation inhibition (MTS assay); type: cell-based; settings: Homo sapiens, 72 h, 3 days incubation, read-out: Mino (IC50, Inhibitory Activity of Compounds on Mino Cell Proliferation)
Description: The cell concentration was diluted according to a 3-day incubation period, and 90 µL of cell suspension was added to each well of a 96-well plate, resulting in 8,000 cells per well. […] The test compounds were prepared from a 10 mM stock solution and serially diluted in a five-fold gradient. Similarly, 10 µL of the diluted compound solution was added to each compound-treated well (final DMSO concentration 0.2%).
The cells were incubated in a 37 °C, 5% CO2 incubator for 3 days. After incubation, the reaction solution was prepared according to the MTS assay kit instructions (Promega, G5430), and 20 µL was added to each well. The plate was further incubated at 37 °C with 5% CO2 for 3-4 hours. The absorbance at 490 nm was measured using a microplate reader, and the absorbance at 690 nm was used as the background value. The final raw data were calculated as OD490 - OD690. […] The IC50 values for cell proliferation inhibition were determined using GraphPad Prism 5.0. Each experiment was repeated three times, and three parallel replicates were performed in each experiment to calculate the mean value and standard deviation.
Table 2. Inhibitory Activity of Compounds on Mino Cell Proliferation

MV-4-11 cells = experiment: MV-4-11 cell proliferation inhibition (MTS assay); type: cell-based; settings: Homo sapiens, MV4-11, 168 h, 7 days incubation, MTS, read-out: MV-411 (IC50, Inhibitory Activity of Compounds on MV-4-11 Cell Proliferation)
Description: MV-4-11 cells were cultured in IMDM medium supplemented with 10% fetal bovine serum and collected. The cell concentration was diluted according to a 7-day incubation period, and 180 µL of cell suspension was added to each well of a 96-well plate, resulting in 2,000 cells per well. […] The test compounds were prepared from a 10 mM stock solution and serially diluted in a five-fold gradient, and 20 µL of the diluted compound solution was added to each compound-treated well (final DMSO concentration 0.2%). The cells were incubated in a 37 °C, 5% CO2 incubator for 7 days. After incubation, the reaction solution was prepared according to the MTS assay kit instructions (Promega, G5430), and 20 µL was added to each well. The plate was further incubated at 37 °C with 5% CO2 for 3-4 hours. The absorbance at 490 nm was measured using a microplate reader, and the absorbance at 690 nm was used as the background value. The final raw data were calculated as OD490 - OD690. […] The IC50 values for cell proliferation inhibition were determined using GraphPad Prism 5.0. Each experiment was repeated three times, and three parallel replicates were performed in each experiment to calculate the mean value and standard deviation.
Table 3. Inhibitory Activity of Compounds on MV-4-11 Cell Proliferation

CRBN/DDB1 = CRBN/DDB1 (Homo sapiens, UniProt Q96SW2); experiment: CRBN/DDB1 binding TR-FRET assay; settings: read-out: AVE_Inhibition% (1 µM)
Sequence of CRBN/DDB1 (Q96SW2 whole entry, species assumed): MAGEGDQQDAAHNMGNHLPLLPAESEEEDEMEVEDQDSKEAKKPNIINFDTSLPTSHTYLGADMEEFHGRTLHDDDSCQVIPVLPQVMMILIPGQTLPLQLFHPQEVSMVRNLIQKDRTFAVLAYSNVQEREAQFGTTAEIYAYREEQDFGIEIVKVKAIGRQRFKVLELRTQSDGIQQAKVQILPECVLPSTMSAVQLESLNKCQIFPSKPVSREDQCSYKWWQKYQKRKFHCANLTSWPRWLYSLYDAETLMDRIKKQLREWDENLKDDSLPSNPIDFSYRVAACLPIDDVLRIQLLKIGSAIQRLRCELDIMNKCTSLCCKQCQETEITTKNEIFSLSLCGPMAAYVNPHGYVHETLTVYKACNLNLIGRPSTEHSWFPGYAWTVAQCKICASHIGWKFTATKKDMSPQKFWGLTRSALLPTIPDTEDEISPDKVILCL
Sequence of CRBN/DDB1 (Q16531 whole entry partner, species assumed): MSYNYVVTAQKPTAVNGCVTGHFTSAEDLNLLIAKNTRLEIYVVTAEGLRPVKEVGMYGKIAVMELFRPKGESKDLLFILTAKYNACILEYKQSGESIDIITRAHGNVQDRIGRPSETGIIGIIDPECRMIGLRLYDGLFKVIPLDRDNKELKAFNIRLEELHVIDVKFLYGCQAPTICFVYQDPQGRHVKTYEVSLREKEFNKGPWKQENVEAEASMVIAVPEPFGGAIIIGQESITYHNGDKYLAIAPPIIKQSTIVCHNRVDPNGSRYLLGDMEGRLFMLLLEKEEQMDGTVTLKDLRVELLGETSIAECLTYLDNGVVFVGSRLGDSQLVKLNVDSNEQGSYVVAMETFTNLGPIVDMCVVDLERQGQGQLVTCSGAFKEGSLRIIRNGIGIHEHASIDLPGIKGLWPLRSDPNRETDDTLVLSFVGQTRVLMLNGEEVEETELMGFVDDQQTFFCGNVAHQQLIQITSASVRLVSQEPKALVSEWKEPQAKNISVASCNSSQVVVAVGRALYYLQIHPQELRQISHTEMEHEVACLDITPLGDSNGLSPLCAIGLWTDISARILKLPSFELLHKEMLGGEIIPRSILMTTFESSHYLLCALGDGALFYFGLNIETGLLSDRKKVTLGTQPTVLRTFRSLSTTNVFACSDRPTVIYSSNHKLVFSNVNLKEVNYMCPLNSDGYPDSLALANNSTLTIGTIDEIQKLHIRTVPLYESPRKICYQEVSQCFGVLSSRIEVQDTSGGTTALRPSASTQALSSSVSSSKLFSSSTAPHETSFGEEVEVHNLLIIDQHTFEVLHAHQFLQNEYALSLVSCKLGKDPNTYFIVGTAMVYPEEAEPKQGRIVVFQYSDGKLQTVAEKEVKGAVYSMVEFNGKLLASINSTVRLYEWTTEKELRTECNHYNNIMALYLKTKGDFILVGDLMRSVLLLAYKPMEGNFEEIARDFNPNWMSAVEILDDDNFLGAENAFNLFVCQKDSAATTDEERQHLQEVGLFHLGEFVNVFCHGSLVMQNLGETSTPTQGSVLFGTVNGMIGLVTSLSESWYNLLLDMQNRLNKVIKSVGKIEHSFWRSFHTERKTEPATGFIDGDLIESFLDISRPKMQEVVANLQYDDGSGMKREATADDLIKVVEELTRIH
Description: • 1. 0.1 µL of the reference solution was added to a 384-well assay plate. The final detection concentration was 100 µM, followed by 3-fold serial dilution for 10 points. • 2. 2.5 µL of CRBN/DDB1 was added to the 384-well plate and centrifuged at 1000 rpm for 1 minute. • 3. 2.5 µL of Thalidomide-BODIPY was added to the plate, centrifuged at 1000 rpm for 1 minute, and incubated at 25 °C for 15 minutes. • 4. 5 µL of His-Tb was added to the plate, centrifuged at 1000 rpm for 1 minute, and incubated at 25 °C for 60 minutes. • 5. The TR-FRET signal was measured using a BMG plate reader with a fluorescence ratio of 520/490 nm.
Table 4. Inhibition Rate of Compounds on CRBN/DDB1 Binding

[1] = cited from earlier work

pIC50 (MM.1S cells) | pIC50 (MV-4-11 cells) | inhibition at 1 µM (CRBN/DDB1) | SMILES | pIC50 (Mino cells) | hydrolysis half-life ([1]; pH 7) | hydrolysis half-life ([1]; pH 7.4) | hydrolysis half-life ([1]; pH 8)
> 6.70 | > 6.70 | > 90% | O=C1CCC(n2[nH]c3c(OCc4ccc(CN5CCN(c6ccc(F)cc6F)CC5)cc4)cccc3c2=O)C(=O)N1 (stereo not drawn) [Compound D7, 3-(7-((4-((4-(2,4-difluorophenyl)piperazin-1-yl)methyl)benzyl)oxy)-3-oxo-1,3-dihydro-2H-indazol-2-yl)piperidine-2,6-dione] | > 6.70 |  |  | 
> 6.70 | > 6.70 | > 90% | O=C1CCC(n2[nH]c3c(OCc4ccc(CN5CCN(c6cccc(Cl)c6)CC5)cc4)cccc3c2=O)C(=O)N1 (stereo not drawn) [Compound D8, 3-(7-((4-((4-(3-chlorophenyl)piperazin-1-yl)methyl)benzyl)oxy)-3-oxo-1,3-dihydro-2H-indazol-2-yl)piperidine-2,6-dione] | > 6.70 |  |  | 
> 6.70 | > 6.70 | > 90% | O=C1CCC(n2[nH]c3c(OCc4ccc(CN5CCN(c6ccc(Cl)cc6)CC5)cc4)cccc3c2=O)C(=O)N1 (stereo not drawn) [Compound D9, 3-(7-((4-((4-(4-chlorophenyl)piperazin-1-yl)methyl)benzyl)oxy)-3-oxo-1,3-dihydro-2H-indazol-2-yl)piperidine-2,6-dione] | > 6.70 |  |  | 
> 6.70 | > 6.70 | > 90% | O=C1CCC(n2[nH]c3c(OCc4ccc(CN5CCN(c6ccc(F)cc6)CC5)cc4)cccc3c2=O)C(=O)N1 (stereo not drawn) [Compound D10, 3-(7-((4-((4-(4-fluorophenyl)piperazin-1-yl)methyl)benzyl)oxy)-3-oxo-1,3-dihydro-2H-indazol-2-yl)piperidine-2,6-dione] | > 6.70 |  |  | 
> 6.70 | > 6.70 | > 90% | N#Cc1ccc(N2CCN(Cc3ccc(COc4cc(F)cc5c(=O)n(C6CCC(=O)NC6=O)[nH]c45)cc3)CC2)c(F)c1 (stereo not drawn) [Compound D14, 4-(4-(4-(((2-(2,6-dioxopiperidin-3-yl)-5-fluoro-3-oxo-2,3-dihydro-1H-indazol-7-yl)oxy)methyl)benzyl)piperazin-1-yl)-3-fluorobenzonitrile] | > 6.70 |  |  | 
> 6.70 | > 6.70 | 50 to 90% | O=C1CCC(n2[nH]c3c(OCc4ccc(CN5CCN(c6ccc(F)cc6F)CC5)cc4)cc(F)cc3c2=O)C(=O)N1 (stereo not drawn) [Compound D15, 3-(7-((4-((4-(2,4-difluorophenyl)piperazin-1-yl)methyl)benzyl)oxy)-5-fluoro-3-oxo-1,3-dihydro-2H-indazol-2-yl)piperidine-2,6-dione] | > 6.70 |  |  | 
> 6.70 | > 6.70 | > 90% | O=C1CCC(n2[nH]c3c(OCc4ccc(CN5CCN(c6ccc(F)cc6)CC5)cc4)cc(F)cc3c2=O)C(=O)N1 (stereo not drawn) [Compound D19, 3-(5-Fluoro-7-((4-((4-(4-fluorophenyl)piperazin-1-yl)methyl)benzyl)oxy)-3-oxo-1,3-dihydro-2H-indazol-2-yl)piperidine-2,6-dione] | > 6.70 |  |  | 
< 5.00 | < 4.70 | < 50% | CCn1c2c(OCc3ccc(CN4CCOCC4)cc3)cccc2c(=O)n1C1CCC(=O)NC1=O (stereo not drawn) [Compound D23, 3-(1-Ethyl-7-((4-(morpholinomethyl)benzyl)oxy)-3-oxo-1,3-dihydro-2H-indazol-2-yl)piperidine-2,6-dione] | < 5.00 |  |  | 
5.00 to 6.00 | 4.70 to 6.00 | < 50% | CCn1c2c(OCc3ccc(CN4CCN(c5ccc(C#N)cc5F)CC4)cc3)cccc2c(=O)n1C1CCC(=O)NC1=O (stereo not drawn) [Compound D25] | < 5.00 |  |  | 

Continued, compound first:

SMILES | pIC50 (MM.1S cells) | pIC50 (MV-4-11 cells) | inhibition at 1 µM (CRBN/DDB1) | pIC50 (Mino cells) | hydrolysis half-life ([1]; pH 7) | hydrolysis half-life ([1]; pH 7.4) | hydrolysis half-life ([1]; pH 8)
Cc1ccc(N2CCN(C(=O)c3ccc(COc4cccc5c(=O)n(C6CCC(=O)NC6=O)[nH]c45)cc3)CC2)c(F)c1 (stereo not drawn) [Compound D5, 3-(7-((4-(4-(2-Fluoro-4-methylphenyl)piperazine-1-carbonyl)benzyl)oxy)-3-oxo-1,3-dihydro-2H-indazol-2-yl)piperidine-2,6-dione] | > 6.70 | 4.70 to 6.00 | 50 to 90% | > 6.70 |  |  | 
O=C1CCC(n2[nH]c3c(OCc4ccc(CN5CCN(c6ccc(Cl)cc6)CC5)cc4)cc(F)cc3c2=O)C(=O)N1 (stereo not drawn) [Compound D18, 3-(7-((4-((4-(4-chlorophenyl)piperazin-1-yl)methyl)benzyl)oxy)-5-fluoro-3-oxo-1,3-dihydro-2H-indazol-2-yl)piperidine-2,6-dione] | > 6.70 | > 6.70 | > 90% | > 6.70 |  |  | 
CC(C)(C)NC(=O)c1ccc2c(=O)n(C3CCC(=O)NC3=O)[nH]c2c1 (stereo not drawn) [Compound D40, N-(tert-butyl)-2-(2,6-dioxopiperidin-3-yl)-3-oxo-2,3-dihydro-1H-indazole-6-carboxamide] | < 5.00 | < 4.70 | < 50% | < 5.00 |  |  | 
O=C1CC[C@H](n2[nH]c3cc(CNC(=O)C(F)(F)c4ccc(Cl)cc4)ccc3c2=O)C(=O)N1 [Compound D44, (S)-2-(4-chlorophenyl)-N-((2-(2,6-dioxopiperidin-3-yl)-3-oxo-2,3-dihydro-1H-indazol-6-yl)methyl)-2,2-difluoroacetamide] | < 5.00 | 4.70 to 6.00 | < 50% | < 5.00 |  |  | 
O=C1CCC(n2[nH]c3cc(C(=O)NCc4ccccc4)ccc3c2=O)C(=O)N1 (stereo not drawn) [Compound D46, N-Benzyl-2-(2,6-dioxopiperidin-3-yl)-3-oxo-2,3-dihydro-1H-indazol-6-carboxamide] | < 5.00 | < 4.70 | < 50% | < 5.00 |  |  | 
CCc1ccc([C@H](C)NC(=O)c2ccc3c(=O)n(C4CCC(=O)NC4=O)[nH]c3c2)cc1 (stereo partly drawn) [Compound D47, 2-(2,6-Dioxopiperidin-3-yl)-N-((S)-1-(4-ethylphenyl)ethyl)-3-oxo-2,3-dihydro-1H-indazol-6-carboxamide] | 6.00 to 6.70 | 6.00 to 6.70 | < 50% | > 6.70 |  |  | 
O=C1CCC(N2C(=O)c3ccccc3C2=O)C(=O)N1 (stereo not drawn) [thalidomide] |  |  |  |  | about 11 hours | ~5 h | ~1.25 h
